± gives the standard deviation.
Assay: chemical recovery from spiked human plasma; higher = better extraction
Conditions: pooled human plasma
[1] = extraction method: SPE only (HLB 96-well)
[2] = extraction method: solvent precipitation (ACN + hexane)
[3] = extraction method: PES+SPE (3 d PDMS equilibration then HLB SPE)
[4] = extraction method: SPE only (HLB 96-well), PES comparison experiment

## Cc1cc(C(F)(C(F)(F)F)C(F)(F)F)ccc1NC(=O)c1cccc(I)c1C(=O)NC(C)(C)CS(C)(=O)=O [Flubendiamide]
[1]
  chemical recovery: 25.7 ± 6.4%
[2]
  chemical recovery: 53.1 ± 4.4%

## CC(C)(C)c1cc(CCC(=O)NCCCCCCNC(=O)CCc2cc(C(C)(C)C)c(O)c(C(C)(C)C)c2)cc(C(C)(C)C)c1O [Irganox-1098]
[2]
  chemical recovery: 55.3 ± 6.4%

## Nc1ccc(Cc2ccc(N)c(Cl)c2)cc1Cl [2,2'-dichloro-4,4'-methylenedianiline]
[3]
  chemical recovery: 28.7 ± 6.4%
[1]
  chemical recovery: 47 ± 13%
[2]
  chemical recovery: 71.3 ± 5.2%

## CC1(C)[C@@H](O[C@H]2O[C@H](C(=O)O)[C@@H](O)[C@H](O)[C@H]2O[C@@H]2O[C@H](C(=O)O)[C@@H](O)[C@H](O)[C@H]2O)CC[C@]2(C)[C@H]3C(=O)C=C4[C@@H]5C[C@@](C)(C(=O)O)CC[C@]5(C)CC[C@@]4(C)[C@]3(C)CC[C@@H]12 [Glycyrrhizin]
[3]
  chemical recovery: 14.5 ± 4.5%
[1]
  chemical recovery: 16.6 ± 2.5%
[2]
  chemical recovery: 0.719 ± 0.66%

## ClC1=C(Cl)C2(Cl)C3C4OC4C(Cl)C3C1(Cl)C2(Cl)Cl (stereo not drawn) [Heptachlor epoxide]
[1]
  chemical recovery: 1.06 ± 0.28%
[2]
  chemical recovery: 18.7 ± 2.8%

## CC(C)NCC(O)COc1cccc2[nH]ccc12 (stereo not drawn) [Pindolol]
[3]
  chemical recovery: 42.3 ± 1.6%
[2]
  chemical recovery: 76 ± 2.5%

## Nc1ccc2nc3ccc(N)cc3nc2c1 [2,8-Diaminophenazine]
[3]
  chemical recovery: 11.8 ± 0.64%
[1]
  chemical recovery: 38.5 ± 14%
[2]
  chemical recovery: 53.2 ± 6.7%

## CCCCCCCCCCCCCCOS(=O)(=O)O [Tetradecylsulfate]
[1]
  chemical recovery: 28.4 ± 6.5%
[2]
  chemical recovery: 35.5 ± 5.1%

## O=C(Nc1ccccc1)N(Cc1ccc(Cl)cc1)C1CCCC1 [Pencycuron]
[3]
  chemical recovery: 54 ± 6.3%
[1]
  chemical recovery: 28.4 ± 3.3%

## COP(=O)(OC)OC [Trimethylphosphate]
[1]
  chemical recovery: 3.11 ± 2.1%
[2]
  chemical recovery: 0.912 ± 1.3%

## O=C1C2CC3C1C1(Cl)C(Cl)C4(Cl)C2C3C1(Cl)C4(Cl)Cl (stereo not drawn) [Endrin ketone]
[1]
  chemical recovery: 7.89 ± 2.1%
[2]
  chemical recovery: 15.3 ± 1.4%

## Cc1ccc(N)cc1Cl [3-Chloro-4-methylaniline]
[3]
  chemical recovery: 56.7 ± 3.6%
[1]
  chemical recovery: 45.3 ± 2.8%
[2]
  chemical recovery: 76.7 ± 4.1%

## Cc1c(COC(=O)C2C(/C=C(\Cl)C(F)(F)F)C2(C)C)cccc1-c1ccccc1 (stereo not drawn) [Bifenthrin]
[1]
  chemical recovery: 0.536 ± 0.24%
[2]
  chemical recovery: 18.9 ± 3.9%

## Cc1ccc2cc3c(ccc4ccccc43)c3c2c1CC3 [3-Methylcholanthrene]
[1]
  chemical recovery: 0.839 ± 0.34%
[2]
  chemical recovery: 58.3 ± 3.3%

## O=S(=O)(O)c1cccc2c(O)cccc12 [1-Naphthol-5-sulfonic acid]
[4]
  chemical recovery: 35.9 ± 5.8%

## CCCCCCCCCCCC(=O)NCCO [N-Lauroylethanolamine]
[1]
  chemical recovery: 47.5 ± 6%
[2]
  chemical recovery: 74.2 ± 3.9%

## Cc1ncc([N+](=O)[O-])n1CCO [Metronidazole]
[1]
  chemical recovery: 21.2 ± 3.4%
[2]
  chemical recovery: 70.6 ± 4.1%

## Cc1cc(Cl)ccc1/N=C/N(C)C [Chlordimeform]
[3]
  chemical recovery: 28.8 ± 4.5%
[1]
  chemical recovery: 24.7 ± 4.2%
[2]
  chemical recovery: 30.1 ± 3.3%

## Cc1cc(Cc2cc(C)cc(C(C)(C)C)c2O)c(O)c(C(C)(C)C)c1 [2,2'-Methylenebis(6-tert-butyl-p-cresol)]
[1]
  chemical recovery: 7.83 ± 3.9%

## COC(=O)c1ccccc1C(=O)OC [Dimethylphthalate]
[3]
  chemical recovery: 46 ± 3.9%
[2]
  chemical recovery: 67.3 ± 4.1%

## N#Cc1cc(Cl)c(O)c(Cl)c1 [Chloroxynil]
[3]
  chemical recovery: 59 ± 2.5%
[1]
  chemical recovery: 46.1 ± 5.2%
[2]
  chemical recovery: 74.3 ± 3.8%

## O=C(NCc1ncc(C(F)(F)F)cc1Cl)c1c(Cl)cccc1Cl [Fluopicolide]
[3]
  chemical recovery: 65.8 ± 11%
[1]
  chemical recovery: 58.1 ± 3.7%
[2]
  chemical recovery: 79.1 ± 2.3%

## Cn1c(N)nc2ncc(-c3ccccc3)cc21 [2-Amino-1-methyl-6-phenylimidazo[4,5-b]pyridine (PhIP)]
[3]
  chemical recovery: 38.9 ± 2.9%
[1]
  chemical recovery: 39.3 ± 2.8%
[4]
  chemical recovery: 47 ± 5.8%
[2]
  chemical recovery: 72.4 ± 2.8%

## CON(C)C(=O)Nc1ccc(Cl)c(Cl)c1 [Linuron]
[3]
  chemical recovery: 46.9 ± 7.1%
[1]
  chemical recovery: 50.1 ± 0.84%
[4]
  chemical recovery: 50.2 ± 7.8%
[2]
  chemical recovery: 69.6 ± 2.5%

## N=C(N)NC(=O)Cc1c(Cl)cccc1Cl [Guanfacine]
[3]
  chemical recovery: 43.1 ± 2.6%
[1]
  chemical recovery: 44 ± 3.3%
[2]
  chemical recovery: 57.9 ± 5%

## O=S(=O)(O)CCC(F)(F)C(F)(F)C(F)(F)C(F)(F)C(F)(F)C(F)(F)C(F)(F)C(F)(F)F [8.2-Fluorotelomersulfonic-acid]
[1]
  chemical recovery: 34 ± 2.1%

## Nc1c(Cl)c(Cl)nc(C(=O)O)c1Cl [Picloram]
[3]
  chemical recovery: 29.5 ± 5.1%
[1]
  chemical recovery: 34.9 ± 2.7%
[2]
  chemical recovery: 63.3 ± 3.8%

## CC(C)(c1ccccc1)c1ccc(O)cc1 [4-Cumylphenol]
[1]
  chemical recovery: 30.6 ± 7.2%
[2]
  chemical recovery: 46.6 ± 4.5%

## Cc1nnc(-c2ccccc2)c(=O)n1N [Metamitron]
[3]
  chemical recovery: 53 ± 4.2%
[1]
  chemical recovery: 46.3 ± 4.3%
[4]
  chemical recovery: 92.5 ± 14%
[2]
  chemical recovery: 70.3 ± 0.41%

## Cc1c(Br)c(Br)c(C)c(Br)c1Br [2,3,5,6-Tetrabromo-p-xylene]
[3]
  chemical recovery: 83.9 ± 17%
[1]
  chemical recovery: 17 ± 6.2%
[2]
  chemical recovery: 103 ± 16%

## Cc1ccc2ccc3ccc(C)cc3c2c1 [3,6-dimethylphenanthrene]
[3]
  chemical recovery: 36.5 ± 13%
[1]
  chemical recovery: 2.62 ± 0.48%
[2]
  chemical recovery: 71.5 ± 5%

## Nc1ccc(Nc2ccccc2)cc1 [4-Aminodiphenylamine]
[3]
  chemical recovery: 1.74 ± 1.1%
[1]
  chemical recovery: 1.91 ± 0.31%

## CC1NC(C)(C)COC1(O)c1cccc(Cl)c1 [(S,S)-Hydroxybupropion]
[3]
  chemical recovery: 5.72 ± 0.93%
[1]
  chemical recovery: 36.3 ± 2.2%
[2]
  chemical recovery: 59.9 ± 3.2%

## CCCCCCCCCCCCN(C)C [N,N-Dimethyldodecylamine]
[4]
  chemical recovery: 42.1 ± 8.8%
[2]
  chemical recovery: 78.3 ± 23%

## CCC(C)(c1ccc(O)cc1)c1ccc(O)cc1 [Bisphenol-B]
[3]
  chemical recovery: 63.4 ± 2%
[1]
  chemical recovery: 45.4 ± 1.4%
[2]
  chemical recovery: 49.7 ± 3.2%

## CCc1cc(C)cc(CC)c1-c1c(OC(=O)C(C)(C)C)n2n(c1=O)CCOCC2 [Pinoxaden]
[3]
  chemical recovery: 0.0892 ± 0.042%
[1]
  chemical recovery: 21.1 ± 3.2%

## CN(C)S(=O)(=O)c1ccc(N)cc1 [4-Amino-N,N-dimethylbenzenesulfonamide]
[3]
  chemical recovery: 69.6 ± 6.2%
[1]
  chemical recovery: 63.7 ± 4.4%

## CCCC(C)(COC(N)=O)COC(=O)NC(C)C (stereo not drawn) [Carisoprodol]
[2]
  chemical recovery: 78.1 ± 5.9%

## CC(C)N1C(=O)c2cc(O)ccc2NS1(=O)=O [6-Hydroxybentazone]
[3]
  chemical recovery: 29 ± 4%
[1]
  chemical recovery: 33.9 ± 7.6%
[2]
  chemical recovery: 70.3 ± 3.6%

## CCCCc1ncc(/C=C(\Cc2cccs2)C(=O)O)n1Cc1ccc(C(=O)O)cc1 [Eprosartan]
[1]
  chemical recovery: 44.3 ± 4.6%

## CC(C)CCCCCCOC(=O)c1ccccc1C(=O)OCCCCCCC(C)C [Diisononyl-phthalate]
[1]
  chemical recovery: 23.4 ± 7.7%

## O=C(c1ccccc1)c1ccc(O)cc1O [2,4-Dihydroxybenzophenone]
[3]
  chemical recovery: 53.8 ± 3.7%
[1]
  chemical recovery: 42.1 ± 2.9%
[2]
  chemical recovery: 59.2 ± 3.6%

## Nc1nc2c(ncn2COCC(=O)O)c(=O)[nH]1 [Carboxy-aciclovir]
[1]
  chemical recovery: 1.5 ± 1.3%

## CCCCOCCOCCOCCO [Triethylene-Glycol-Monobutyl-Ether]
[3]
  chemical recovery: 165 ± 16%
[1]
  chemical recovery: 109 ± 30%

## CN(C)CCC(c1ccc(Cl)cc1)c1ccccn1 (stereo not drawn) [Chlorpheniramine]
[3]
  chemical recovery: 0.333 ± 0.13%
[1]
  chemical recovery: 33.5 ± 3.4%
[2]
  chemical recovery: 54 ± 5.6%

## C[C@H](CCC(=O)O)[C@H]1CC[C@H]2[C@@H]3C(=O)C[C@@H]4C[C@H](O)CC[C@]4(C)[C@H]3CC[C@]12C [7-Oxolithocholic-acid]
[3]
  chemical recovery: 51.1 ± 5.2%
[1]
  chemical recovery: 38.6 ± 2.2%
[2]
  chemical recovery: 65.4 ± 3.4%

## C[C@H](CCC(=O)O)[C@H]1CC[C@H]2[C@@H]3[C@H](O)C[C@@H]4C[C@H](O)CC[C@]4(C)[C@H]3CC[C@]12C [Chenodeoxycholic-acid]
[1]
  chemical recovery: 37.4 ± 7.9%
[2]
  chemical recovery: 74.9 ± 4.7%

## O=C(O)C(F)(F)C(F)(F)C(F)(F)C(F)(F)C(F)(F)F [Perfluorohexanoic acid]
[3]
  chemical recovery: 40.2 ± 4.7%
[1]
  chemical recovery: 35.5 ± 3.9%
[4]
  chemical recovery: 44.4 ± 8.7%
[2]
  chemical recovery: 75.3 ± 4.1%

## COCCOCCOCCOC [Triglyme]
[1]
  chemical recovery: 24.9 ± 4.5%

## CCN1CCCC1CNC(=O)c1cc(S(=O)(=O)CC)c(N)cc1OC (stereo not drawn) [Amisulpride]
[2]
  chemical recovery: 70.3 ± 3.4%

## Oc1ccc(Cl)cc1O [3,4-Dihydroxy-chlorobenzene]
[3]
  chemical recovery: 5.54 ± 1.6%
[1]
  chemical recovery: 39.4 ± 4.7%

## CC(C1=C(CCN(C)C)Cc2ccccc21)c1ccccn1 (stereo not drawn) [Dimetindene]
[3]
  chemical recovery: 0.267 ± 0.076%
[1]
  chemical recovery: 24.1 ± 2.6%
[2]
  chemical recovery: 58.5 ± 5.4%

## CCCCCCN [Hexylamine]
[3]
  chemical recovery: 3.2 ± 1.1%
[1]
  chemical recovery: 8.65 ± 5.7%
[2]
  chemical recovery: 19.7 ± 6%

## N#CCNC(=O)c1cnccc1C(F)(F)F [Flonicamid]
[3]
  chemical recovery: 53.1 ± 3.7%
[1]
  chemical recovery: 46.9 ± 1.9%
[2]
  chemical recovery: 73.8 ± 3.3%

## CC(C)CC(C)NC1=CC(=O)C(Nc2ccccc2)=CC1=O (stereo not drawn) [6PPD-quinone]
[3]
  chemical recovery: 16.3 ± 4.4%
[1]
  chemical recovery: 51.9 ± 4.4%
[2]
  chemical recovery: 79.3 ± 4%

## CCCCCCCCCCCCCCCC(=O)NCCO [Palmitoylethanolamide]
[1]
  chemical recovery: 33.5 ± 8.8%

## ClC(Cl)=C(c1ccc(Cl)cc1)c1ccc(Cl)cc1 [4,4'-DDE]
[3]
  chemical recovery: 49.3 ± 15%
[1]
  chemical recovery: 0.779 ± 0.23%
[2]
  chemical recovery: 41.1 ± 2.4%

## CC(=O)NCCNC(C)=O [Diacetylethylenediamine]
[3]
  chemical recovery: 0.534 ± 0.055%
[1]
  chemical recovery: 0.155 ± 0.14%

## C#CCOc1ccc(CCNC(=O)C(OCC#C)c2ccc(Cl)cc2)cc1OC (stereo not drawn) [Mandipropamid]
[3]
  chemical recovery: 70.3 ± 10%
[1]
  chemical recovery: 58.4 ± 2.1%
[2]
  chemical recovery: 82.4 ± 3.2%

## COc1ccc(C(c2ccc(OC)cc2)C(Cl)Cl)cc1 [1,1-Dichloro-2,2-bis(4-methoxyphenyl)ethan]
[1]
  chemical recovery: 9.27 ± 2.4%
[2]
  chemical recovery: 33.1 ± 7.1%

## CC(C)C1CCC(Cc2ccc(Cl)cc2)C1(O)Cn1cncn1 (stereo not drawn) [Ipconazole]
[3]
  chemical recovery: 56.7 ± 6%
[1]
  chemical recovery: 45.5 ± 5.7%
[2]
  chemical recovery: 75.8 ± 5.9%

## CN1CCN2c3ncccc3Cc3ccccc3C2C1 (stereo not drawn) [Mirtazapine]
[3]
  chemical recovery: 0.274 ± 0.11%
[1]
  chemical recovery: 30.4 ± 2.3%
[4]
  chemical recovery: 29.9 ± 9.5%
[2]
  chemical recovery: 69.4 ± 3.5%

## CC(C)(c1ccc(O)c(-c2ccccc2)c1)c1ccc(O)c(-c2ccccc2)c1 [Bisphenol-PH]
[3]
  chemical recovery: 64.8 ± 12%
[1]
  chemical recovery: 26.7 ± 7%
[2]
  chemical recovery: 38 ± 5%

## C=C(C)C(=O)NCCCN(C)C [N-(3-Dimethylamino)propyl)methacrylamide]
[3]
  chemical recovery: 42.3 ± 14%
[1]
  chemical recovery: 39.9 ± 3.7%

## Cn1c(N)nc2ncc(-c3ccccc3)cc21 [2-Amino-1-methyl-6-phenylimidazo[4,5-b]pyridine-(PhIP)]
[3]
  chemical recovery: 49 ± 2.1%
[1]
  chemical recovery: 45.2 ± 2.2%
[2]
  chemical recovery: 70.9 ± 3.6%

## O=C(NC1CCCCC1)NC1CCCCC1 [Dicyclohexylurea]
[3]
  chemical recovery: 54.4 ± 4.7%
[1]
  chemical recovery: 56.9 ± 0.74%
[2]
  chemical recovery: 78.6 ± 1.8%
